Compound	solubility (mole fraction) (in ethyl acetate, 303.15 K)	solubility (mole fraction) (in ethyl acetate, 307.15 K)	solubility (mole fraction) (in ethyl acetate, 312.15 K)	solubility (mole fraction) (in ethyl acetate, 317.15 K)	solubility (mole fraction) (in ethyl acetate, 321.15 K)	solubility (mole fraction) (in n-hexane, 303.15 K)	solubility (mole fraction) (in n-hexane, 307.15 K)	solubility (mole fraction) (in n-hexane, 312.15 K)	solubility (mole fraction) (in n-hexane, 317.15 K)	solubility (mole fraction) (in n-hexane, 321.15 K)	solubility (mole fraction) (in tert-amyl alcohol, 303.15 K)	solubility (mole fraction) (in tert-amyl alcohol, 307.15 K)	solubility (mole fraction) (in tert-amyl alcohol, 312.15 K)	solubility (mole fraction) (in tert-amyl alcohol, 317.15 K)	solubility (mole fraction) (in tert-amyl alcohol, 321.15 K)	solubility (mole fraction) (in tert-butanol, 303.15 K)	solubility (mole fraction) (in tert-butanol, 307.15 K)	solubility (mole fraction) (in tert-butanol, 312.15 K)	solubility (mole fraction) (in tert-butanol, 317.15 K)	solubility (mole fraction) (in tert-butanol, 321.15 K)
COC(=O)/C=C/c1ccc(O)cc1	0.0856	0.0915	0.0997	0.108	0.113	2.81e-05	4.38e-05	6.18e-05	8.13e-05	0.000124	0.116	0.126	0.154	0.174	0.201	0.0977	0.113	0.128	0.143	0.171
COC(=O)/C=C/c1cc(OC)c(O)c(OC)c1	0.117	0.128	0.147	0.157	0.168	0.000292	0.000383	0.000495	0.000743	0.000804	0.0264	0.0336	0.0644	0.0926	0.14	0.0184	0.0234	0.0523	0.0743	0.0973
COC(=O)/C=C/c1ccc(O)c(OC)c1	0.217	0.247	0.279	0.305	0.334	0.00112	0.00211	0.00251	0.00354	0.00416	0.215	0.246	0.287	0.312	0.342	0.182	0.209	0.247	0.295	0.325

Source: BigSolDB 2.1
